Reference: patent US10570122B2, “Compounds with anti-tumoral activity” (AB Science, priority 2015, dated 2020)

Tests used:
BXPC3 = assay: CellTiter-Blue cell-based survival/proliferation assay, BXPC3; settings: Homo sapiens, BXPC-3; BXPC3 pancreas tumor cell line, 48 h
How it was run: (§1)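 Tenfold compound dilutions (0–10 μM) were added to 1·10^4 cells/well. Plates incubated 48 h at 37 °C. CellTiter-Blue reduction (4 h, 37 °C) was read as fluorescence at 590 nm, background-corrected with a cell-free blank.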

DLD1 = assay: CellTiter-Blue cell-based survival/proliferation assay, DLD1; settings: Homo sapiens, DLD-1; DLD_1 colorectal tumor cell line, 48 h
How it was run: as §1

ACHN = assay: CellTiter-Blue cell-based survival/proliferation assay, ACHN; settings: Homo sapiens; ACHN kidney tumor cell line, 48 h
How it was run: as §1

SW579 = assay: CellTiter-Blue cell-based survival/proliferation assay, SW579; settings: Homo sapiens; SW579 head & neck tumor cell line, 48 h
How it was run: as §1

H1299 = assay: CellTiter-Blue cell-based survival/proliferation assay, H1299; settings: Homo sapiens, NCI-H1299; H1299 lung tumor cell line, 48 h
How it was run: as §1

HEP2 = assay: CellTiter-Blue cell-based survival/proliferation assay, HEP2; settings: Homo sapiens, HEp-2; HEP2 head & neck tumor cell line, 48 h
How it was run: as §1

PC3 = assay: CellTiter-Blue cell-based survival/proliferation assay, PC3; settings: Homo sapiens, PC-3; PC3 prostate tumor cell line, 48 h
How it was run: as §1

OPM2 = assay: CellTiter-Blue cell-based survival/proliferation assay, OPM2; settings: Homo sapiens, OPM-2, Myeloma cell line OPM2, 48 h, read-out: Anti-tumoral activity (measured IC50) OPM2
How it was run: as §1

[1] = test system: panel of about 34 human tumor cell lines; assay: Cell-based proliferation screening on panel of tumor cell lines; settings: solid tumor cell line, cell line unknown, 48 h, read-out: IC50, solid tumor cell line of column 6 (last section of Table 3)
How it was run: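 CellTiter-Blue survival assay with 1·10^4 cells/well, each line treated 48 h at 37° C with 1/10 serial dilutions from 0 to 10 μM. Resorufin formed during a 4 h reagent incubation is read by fluorescence at 590 nm. A cell-free blank serves as background.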

KARPAS299 = assay: CellTiter-Blue cell-based survival/proliferation assay, KARPAS299; settings: Homo sapiens, KARPAS-299, Lymphoma cell line KARPAS299, 48 h, read-out: Anti-tumoral activity (measured IC50) KARPAS299
How it was run: as §1

AGS = assay: CellTiter-Blue cell-based survival/proliferation assay, AGS; settings: Homo sapiens; AGS stomach tumor cell line, 48 h
How it was run: as §1

A549 = assay: CellTiter-Blue cell-based survival/proliferation assay, A549; settings: Homo sapiens; A549 lung tumor cell line, 48 h
How it was run: as §1

HL60 = assay: CellTiter-Blue cell-based survival/proliferation assay, HL60; settings: Homo sapiens, HL-60, Leukemia cell line HL60, 48 h, read-out: Anti-tumoral activity (measured IC50) HL60
How it was run: as §1

CALU6 = assay: CellTiter-Blue cell-based survival/proliferation assay, CALU6; settings: Homo sapiens, Calu-6; CALU6 lung tumor cell line, 48 h
How it was run: as §1

TOV112D = assay: CellTiter-Blue cell-based survival/proliferation assay, TOV112D; settings: Homo sapiens; TOV112D ovary tumor cell line, 48 h
How it was run: as §1

PANC1 = assay: CellTiter-Blue cell-based survival/proliferation assay, PANC1; settings: Homo sapiens, PANC-1; PANC_1 pancreas tumor cell line, 48 h
How it was run: as §1

BT20 = assay: CellTiter-Blue cell-based survival/proliferation assay, BT20; settings: Homo sapiens, BT-20; BT20 breast tumor cell line, 48 h
How it was run: as §1

A498 = assay: CellTiter-Blue cell-based survival/proliferation assay, A498; settings: Homo sapiens; A498 kidney tumor cell line, 48 h
How it was run: as §1

HGC27 = assay: CellTiter-Blue cell-based survival/proliferation assay, HGC27; settings: Homo sapiens, HGC-27; HGC27 stomach tumor cell line, 48 h
How it was run: as §1

MDAMB231 = assay: CellTiter-Blue cell-based survival/proliferation assay, MDAMB231; settings: Homo sapiens, MDA-MB-231; MDAMB231 breast tumor cell line, 48 h
How it was run: as §1

HCT116 = assay: CellTiter-Blue cell-based survival/proliferation assay, HCT116; settings: Homo sapiens, HCT-116; HCT116 colorectal tumor cell line, 48 h
How it was run: as §1

DU145 = assay: CellTiter-Blue cell-based survival/proliferation assay, DU145; settings: Homo sapiens, DU-145; DU145 prostate tumor cell line, 48 h
How it was run: as §1

PLCPRF5 = assay: CellTiter-Blue cell-based survival/proliferation assay, PLCPRF5; settings: Homo sapiens, PLC-PRF-5; PLC_PRF5 liver tumor cell line, 48 h
How it was run: as §1

CLS354 = assay: CellTiter-Blue cell-based survival/proliferation assay, CLS354; settings: Homo sapiens, CLS-354; CLS354_4 head & neck tumor cell line, 48 h
How it was run: as §1

MESSA = assay: CellTiter-Blue cell-based survival/proliferation assay, MESSA; settings: Homo sapiens, MES-SA; MESSA ovary tumor cell line, 48 h
How it was run: as §1

HEPG2 = assay: CellTiter-Blue cell-based survival/proliferation assay, HEPG2; settings: Homo sapiens; HEPG2 liver tumor cell line, 48 h
How it was run: as §1

[2] = test system: human kinases (456 kinases); assay: KINOMEscan in vitro kinase profiling; type: binding
Protocol: An in vitro kinase profiling was conducted in order to evidence the absence of protein kinase inhibition by the compounds of the invention.
DiscoveRx (Ambit Biosciences) has developed a high-throughput system (KINOMEscan™) for screening of compounds against large numbers of human kinases (456 kinases).
The compounds of the invention were screened at the concentration of 1 μM, and results for primary screen binding interactions were reported as percent control (% Ctrl), where lower numbers indicate stronger hits. DMSO is used as a negative control (100% Ctrl) while a high affinity compound is used as a positive control (0% Ctrl). % Ctrl is calculated as follow:
[formula] Selectivity Score or S-score is a quantitative measure of compound selectivity. It is calculated by dividing the number of kinases that compounds bind to by the total number of distinct kinases tested, excluding mutant variants. S(10)=(number of kinases with % Ctrl<10)/(number of kinases tested), S(1)=(number of kinases with % Ctrl<1)/(number of kinases tested).

REC1 = assay: CellTiter-Blue cell-based survival/proliferation assay, REC1; settings: Homo sapiens, Lymphoma cell line REC1, 48 h, read-out: Anti-tumoral activity (measured IC50) REC1
How it was run: as §1

HUT78 = assay: CellTiter-Blue cell-based survival/proliferation assay, HUT78; settings: Homo sapiens, Lymphoma cell line HUT78, 48 h, read-out: Anti-tumoral activity (measured IC50) HUT78
How it was run: as §1

IC50 [1] | SMILES | IC50 (BXPC3) | IC50 (DLD1) | IC50 (ACHN) | IC50 (SW579) | IC50 (H1299) | IC50 (HEP2) | IC50 (PC3) | IC50 (OPM2) | IC50 (KARPAS299) | IC50 (AGS) | IC50 (A549) | IC50 (HL60) | IC50 (CALU6) | IC50 (TOV112D) | IC50 (PANC1) | IC50 (BT20) | IC50 (A498) | IC50 (HGC27) | IC50 (MDAMB231) | further results
≤ 100 nM | CCOCc1ccc(C)c(Nc2ncc(-c3ccc(-n4cccn4)cc3)o2)c1 [Example 033, (5-Ethoxymethyl-2-methyl-phenyl)-[5-(4-pyrazol-1-yl-phenyl)-oxazol-2-yl]-amine] | 100 to 500 nM | ≤ 100 nM | ≤ 100 nM | > 1000 nM | > 1000 nM | ≤ 100 nM | ≤ 100 nM | ≤ 100 nM | ≤ 100 nM | ≤ 100 nM | > 1000 nM | ≤ 100 nM | ≤ 100 nM | ≤ 100 nM | > 1000 nM | 100 to 500 nM | 100 to 500 nM | ≤ 100 nM | > 1000 nM | IC50 (HCT116): 100 to 500 nM; IC50 (DU145): > 1000 nM; IC50 (PLCPRF5): 500 to 1000 nM; IC50 (CLS354): ≤ 100 nM; IC50 (MESSA): 100 to 500 nM; IC50 (HEPG2): 500 to 1000 nM; Interaction with the 456 kinases tested ([2]; screened at 1 μM): do not efficiently interact; Number of hits/number of kinases, S1 ([2]; tested at 1 μM, S(1): kinases with % Ctrl<1): 0/456; S-score, S1 ([2]; tested at 1 μM, S(1)=(number of kinases with % Ctrl<1)/(number of kinases tested)): 0.000; Number of hits/number of kinases, S10 ([2]; tested at 1 μM, S(10): kinases with % Ctrl<10): 1/456; S-score, S10 ([2]; tested at 1 μM, S(10)=(number of kinases with % Ctrl<10)/(number of kinases tested)): 0.002; Kinase targets, S10 ([2]; tested at 1 μM, kinases with % Ctrl<10): CDKL3; IC50 (REC1): ≤ 100 nM; IC50 (HUT78): ≤ 100 nM
> 1000 nM | Cc1ccc(OCCN2CCOCC2)cc1Nc1ncc(-c2ccc(-n3cccn3)cc2)o1 [Example 029, [2-Methyl-5-(2-morpholin-4-yl-ethoxy)-phenyl]-[5-(4-pyrazol-1-yl-phenyl)-oxazol-2-yl]-amine] | > 1000 nM | > 1000 nM | > 1000 nM | > 1000 nM | > 1000 nM | > 1000 nM | > 1000 nM | > 1000 nM | > 1000 nM | > 1000 nM | > 1000 nM | > 1000 nM | > 1000 nM | > 1000 nM | > 1000 nM | > 1000 nM | > 1000 nM | > 1000 nM | > 1000 nM | IC50 (HCT116): > 1000 nM; IC50 (DU145): > 1000 nM; IC50 (PLCPRF5): > 1000 nM; IC50 (CLS354): > 1000 nM; IC50 (MESSA): > 1000 nM; IC50 (HEPG2): > 1000 nM; IC50 (REC1): > 1000 nM; IC50 (HUT78): > 1000 nM
> 1000 nM | CCOCc1ccc(C)c(Nc2ncc(-c3ccc(-n4cncn4)cc3)o2)c1 [Example 034, (5-Ethoxymethyl-2-methyl-phenyl)-[5-(4-[1,2,4]triazol-1-yl-phenyl)-oxazol-2-yl]-amine] | > 1000 nM | > 1000 nM | > 1000 nM | > 1000 nM | > 1000 nM | 500 to 1000 nM | > 1000 nM | > 1000 nM | 100 to 500 nM | > 1000 nM | > 1000 nM | > 1000 nM | > 1000 nM | 500 to 1000 nM | > 1000 nM | > 1000 nM | > 1000 nM | > 1000 nM | > 1000 nM | IC50 (HCT116): > 1000 nM; IC50 (DU145): > 1000 nM; IC50 (PLCPRF5): > 1000 nM; IC50 (CLS354): 500 to 1000 nM; IC50 (MESSA): > 1000 nM; IC50 (HEPG2): > 1000 nM; IC50 (REC1): 100 to 500 nM; IC50 (HUT78): 100 to 500 nM
